Experimental data taken from PubChem BioAssay AID248 (DTP/NCI, 2004).
Several values for one entry are separate records, joined by “and”; a condition that tells them apart may be missing. Equal values may be shown once. Toxic doses and inconclusive results are not listed. No stated cut-off is given here; in the data, active means T/C of 150% or more; inactive means T/C below 125%. Peptide text beside a SMILES is read from it. * marks the point of attachment. Cbz = O=C(OCc1ccccc1)*

Test system: L1210 leukemia ip in BDF1 mice, survival T/C
Experiment: NCI In Vivo Anticancer Drug Screen. Data for tumor model L1210 Leukemia (intraperitoneal) in B6D2F1 (BDF1) mice
Settings: endpoint: mean survival time, higher = longer survival
Summary of the method: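 Mice bearing the transplanted tumor received compound or vehicle. Survival of the treated group was divided by that of the vehicle-treated control group to give the ratio.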

[1] = dose: 100.0 mg/kg/injection, schedule: Q01DX001 (ip), vehicle: saline
[2] = dose: 200.0 mg/kg/injection, schedule: Q01DX001 (ip), vehicle: saline
[3] = dose: 100.0 mg/kg/injection, schedule: Q04DX003 (ip), vehicle: saline
[4] = dose: 200.0 mg/kg/injection, schedule: Q04DX003 (ip), vehicle: saline
[5] = dose: 400.0 mg/kg/injection, schedule: Q04DX003 (ip), vehicle: saline
[6] = dose: 50.0 mg/kg/injection, schedule: Q04DX003 (ip), vehicle: water
[7] = dose: 100.0 mg/kg/injection, schedule: Q04DX003 (ip), vehicle: Klucel (hydroxypropylcellulose) (HPC)
[8] = dose: 200.0 mg/kg/injection, schedule: Q04DX003 (ip), vehicle: Klucel (hydroxypropylcellulose) (HPC)
[9] = dose: 400.0 mg/kg/injection, schedule: Q04DX003 (ip), vehicle: Klucel (hydroxypropylcellulose) (HPC)
[10] = dose: 100.0 mg/kg/injection, schedule: Q01DX009 (ip), vehicle: saline

Measured: T/C

O=C(CCl)NCC(NC(=O)CCl)C(=O)O (stereo unspecified)
inactive: dose: 100.0 mg/kg/injection, schedule: Q04DX002 (ip), vehicle: saline 115 % of control | dose: 200.0 mg/kg/injection, schedule: Q04DX002 (ip), vehicle: saline 105 % of control | dose: 400.0 mg/kg/injection, schedule: Q04DX002 (ip), vehicle: saline 112 % of control

Sc1cccc2cccnc12.[Ni]
inactive: dose: 50.0 mg/kg/injection, schedule: Q01DX001 (ip), vehicle: saline 111 % of control | [1] 98 % of control | [2] 98 % of control | dose: 400.0 mg/kg/injection, schedule: Q01DX001 (ip), vehicle: saline 98 % of control

Nc1nc(Br)cs1
inactive: [3] 102 % of control | [4] 102 % of control

Cc1ccc(NC(=O)C2C3CC4OC(=O)C2C4C3)cc1 (stereo unspecified)
inactive: [3] 102 % of control | [4] 108 % of control | [5] 111 % of control

NC(N)=Nc1ccc(C(=O)Oc2ccc(OC(=O)c3cccc(N=C(N)N)c3)cc2)cc1
inactive: dose: 50.0 mg/kg/injection, schedule: Q01DX009 (ip), vehicle: water 96 % of control | [6] 90 % of control | dose: 100.0 mg/kg/injection, schedule: Q01DX009 (ip), vehicle: water 98 % of control | dose: 100.0 mg/kg/injection, schedule: Q04DX003 (ip), vehicle: water 93 % of control and 97 % of control | dose: 200.0 mg/kg/injection, schedule: Q01DX009 (ip), vehicle: water 92 % of control | dose: 200.0 mg/kg/injection, schedule: Q04DX003 (ip), vehicle: water 98 % of control and 100 % of control | dose: 400.0 mg/kg/injection, schedule: Q04DX003 (ip), vehicle: water 93 % of control and 95 % of control

O=C(O)CCC(=O)CCC(=O)O
inactive: dose: 100.0 mg/kg/injection, schedule: Q01DX009 (ip), vehicle: other 95 % of control | dose: 200.0 mg/kg/injection, schedule: Q01DX009 (ip), vehicle: other 106 % of control | dose: 400.0 mg/kg/injection, schedule: Q01DX009 (ip), vehicle: other 106 % of control

CC(=O)Oc1cccc2cc3cc(C)cc(OC(C)=O)c3c(OC(C)=O)c12
inactive: dose: 0.5 mg/kg/injection, schedule: Q01DX001 (ip), vehicle: saline 106 % of control | dose: 1.0 mg/kg/injection, schedule: Q01DX001 (ip), vehicle: saline 104 % of control | dose: 2.0 mg/kg/injection, schedule: Q01DX001 (ip), vehicle: saline 108 % of control | dose: 4.0 mg/kg/injection, schedule: Q01DX001 (ip), vehicle: saline 110 % of control | dose: 5.0 mg/kg/injection, schedule: Q01DX001 (ip), vehicle: saline 108 % of control | dose: 8.0 mg/kg/injection, schedule: Q01DX001 (ip), vehicle: saline 116 % of control

CC#CCC(N)C(=O)O (stereo unspecified)
inactive: dose: 75.0 mg/kg/injection, schedule: Q01DX001 (ip), vehicle: carboxymethylcellulose (CMC) 109 % of control | dose: 80.0 mg/kg/injection, schedule: Q01DX009 (ip), vehicle: saline 105 % of control | dose: 150.0 mg/kg/injection, schedule: Q01DX001 (ip), vehicle: carboxymethylcellulose (CMC) 103 % of control | dose: 160.0 mg/kg/injection, schedule: Q01DX009 (ip), vehicle: saline 106 % of control | dose: 300.0 mg/kg/injection, schedule: Q01DX001 (ip), vehicle: carboxymethylcellulose (CMC) 118 % of control | dose: 320.0 mg/kg/injection, schedule: Q01DX009 (ip), vehicle: saline 94 % of control

CCOC(=O)Nc1cc(N)c2nnn(C(c3ccccc3)c3ccccc3)c2n1
inactive: [7] 92 % of control | [8] 91 % of control | [9] 91 % of control

CCC1c2ccc3cc(OC)ccc3c2C(=O)C1CC(=O)O (stereo unspecified)
inactive: [1] 93 % of control | [2] 107 % of control

Cc1cccc(-n2c(N)cc(=O)[nH]c2=S)n1
inactive: dose: 12.5 mg/kg/injection, schedule: Q01DX009 (ip), vehicle: saline 97 % of control | dose: 12.5 mg/kg/injection, schedule: Q04DX003 (ip), vehicle: saline 96 % of control | dose: 25.0 mg/kg/injection, schedule: Q01DX009 (ip), vehicle: saline 96 % of control | dose: 25.0 mg/kg/injection, schedule: Q04DX003 (ip), vehicle: saline 96 % of control | dose: 50.0 mg/kg/injection, schedule: Q01DX009 (ip), vehicle: saline 94 % of control and 105 % of control | dose: 50.0 mg/kg/injection, schedule: Q04DX003 (ip), vehicle: saline 91 % of control | [10] 87 % of control

C[n+]1cccc2cc(Br)ccc21
inactive: dose: 5.0 mg/kg/injection, schedule: Q01DX001 (ip), vehicle: other 100 % of control | dose: 10.0 mg/kg/injection, schedule: Q01DX001 (ip), vehicle: other 107 % of control | dose: 20.0 mg/kg/injection, schedule: Q01DX001 (ip), vehicle: other 111 % of control | dose: 40.0 mg/kg/injection, schedule: Q01DX001 (ip), vehicle: other 105 % of control

O=C1NC23CC=CCC12CCCCCC3 (stereo unspecified)
inactive: dose: 100.0 mg/kg/injection, schedule: Q04DX002 (ip), vehicle: other 93 % of control | dose: 200.0 mg/kg/injection, schedule: Q04DX002 (ip), vehicle: other 90 % of control | dose: 400.0 mg/kg/injection, schedule: Q04DX002 (ip), vehicle: other 86 % of control

COc1cccc2c1C(=O)c1c(O)c3c(c(O)c1C2=O)C[C@@](O)(C(C)=O)C[C@@H]3OC1CC(NC(=S)Nc2ccc(F)cc2)C(O)C(C)O1 (stereo partly specified)
inactive: dose: 0.25 mg/kg/injection, schedule: Q04DX003 (ip), vehicle: other 100 % of control | dose: 0.5 mg/kg/injection, schedule: Q04DX003 (ip), vehicle: other 98 % of control | dose: 1.0 mg/kg/injection, schedule: Q04DX003 (ip), vehicle: other 104 % of control | dose: 2.0 mg/kg/injection, schedule: Q04DX003 (ip), vehicle: other 100 % of control | dose: 4.0 mg/kg/injection, schedule: Q04DX003 (ip), vehicle: other 112 % of control | dose: 6.0 mg/kg/injection, schedule: Q01DX009 (ip), vehicle: water 111 % of control | dose: 8.0 mg/kg/injection, schedule: Q04DX003 (ip), vehicle: other 112 % of control | dose: 12.0 mg/kg/injection, schedule: Q01DX009 (ip), vehicle: water 114 % of control | dose: 14.0 mg/kg/injection, schedule: Q04DX003 (ip), vehicle: water 108 % of control | dose: 16.0 mg/kg/injection, schedule: Q04DX003 (ip), vehicle: other 109 % of control | dose: 21.0 mg/kg/injection, schedule: Q04DX003 (ip), vehicle: water 108 % of control | dose: 23.0 mg/kg/injection, schedule: Q01DX009 (ip), vehicle: water 108 % of control | dose: 24.0 mg/kg/injection, schedule: Q01DX009 (ip), vehicle: water 116 % of control | dose: 39.0 mg/kg/injection, schedule: Q01DX009 (ip), vehicle: water 109 % of control | dose: 48.0 mg/kg/injection, schedule: Q01DX009 (ip), vehicle: water 122 % of control | [6] 120 % of control | dose: 65.0 mg/kg/injection, schedule: Q01DX009 (ip), vehicle: water 109 % of control | dose: 108.0 mg/kg/injection, schedule: Q01DX009 (ip), vehicle: water 119 % of control | dose: 180.0 mg/kg/injection, schedule: Q01DX009 (ip), vehicle: water 104 % of control

CC(=O)NCCOc1ccc([N+](=O)[O-])cc1Cl
inactive: dose: 100.0 mg/kg/injection, schedule: Q01DX001 (ip), vehicle: Klucel (hydroxypropylcellulose) (HPC) 100 % of control | dose: 200.0 mg/kg/injection, schedule: Q01DX001 (ip), vehicle: Klucel (hydroxypropylcellulose) (HPC) 110 % of control

O=C(O)CNC(=O)CNC(=O)OCc1ccccc1 (Cbz-Gly-Gly-OH)
inactive: dose: 100.0 mg/kg/injection, schedule: Q01DX009 (ip), vehicle: Klucel (hydroxypropylcellulose) (HPC) 95 % of control | [7] 97 % of control | dose: 200.0 mg/kg/injection, schedule: Q01DX009 (ip), vehicle: Klucel (hydroxypropylcellulose) (HPC) 95 % of control | [8] 101 % of control | dose: 400.0 mg/kg/injection, schedule: Q01DX009 (ip), vehicle: Klucel (hydroxypropylcellulose) (HPC) 100 % of control | [9] 94 % of control

CC(C)(N)COS(=O)(=O)O
inactive: [10] 106 % of control | [3] 101 % of control | dose: 200.0 mg/kg/injection, schedule: Q01DX009 (ip), vehicle: saline 96 % of control | [4] 114 % of control | dose: 400.0 mg/kg/injection, schedule: Q01DX009 (ip), vehicle: saline 105 % of control | [5] 96 % of control
